These results are taken from PubChem BioAssay (NCI).

Test systems include SNB-78 CNS; LXFL 529 NSCLC; DMS 273 small cell lung; KM20L2 colon; RXF-631 renal; MDA-N; T-47D breast.
Assay in all cases: NCI-60 cell line screen, 48 h

Molecules are shown by their SMILES.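 Assay format: 96-well plates, 48-hour exposure. At the TGI there is no net growth.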

For `C/C(CC(=O)Nc1ccc(Cl)cc1)=N\NC(N)=S`, the TGI with SNB-78 CNS, in the assay with LXFL 529 NSCLC, with DMS 273 small cell lung, in the assay with KM20L2 colon and in the assay with RXF-631 renal was over 100 µM throughout.
For `C[C@]12CCC3[C@@H](CC[C@@H]4c5nonc5CC[C@]34C)C1C/C(=N/O)C2=O` (stereo not given in full), the TGI in the assay on SNB-78 CNS, in the assay with LXFL 529 NSCLC, in the assay on DMS 273 small cell lung, in the assay with KM20L2 colon and in the assay with RXF-631 renal was over 100 µM in each case.
Consider `COC(=O)c1cc(Cl)ccc1NC(=O)c1ccc([N+](=O)[O-])cc1`, for which the TGI was over 100 µM in the assay on SNB-78 CNS; over 100 µM in the assay on LXFL 529 NSCLC; 77.3 µM in the assay with DMS 273 small cell lung; 76.8 µM in the assay on KM20L2 colon; 36.5 µM in the assay with RXF-631 renal.
Consider `COc1ccc(C(=O)C(c2ccc(OC)cc2)C2(O)C(=O)Nc3c2ccc(Cl)c3C)cc1` (stereo not given), for which the TGI with SNB-78 CNS, with LXFL 529 NSCLC, in the assay on KM20L2 colon and in the assay with RXF-631 renal was over 100 µM throughout.
As to `Cc1[nH]c2ccccc2c1C1Cc2ccccc2N1C(=O)/C=C/C(=O)O` (stereo not given), the TGI is over 100 µM with SNB-78 CNS; over 100 µM with LXFL 529 NSCLC; over 100 µM with DMS 273 small cell lung; over 100 µM with KM20L2 colon; 41.3 µM with RXF-631 renal.
As for `COc1c(Cl)cc(NC(=S)C#N)cc1Cl`, the TGI in the assay on SNB-78 CNS stood at 85.9 µM; with LXFL 529 NSCLC it was 85.8 µM; in the assay with DMS 273 small cell lung, 83.2 µM; with KM20L2 colon it was 54.4 µM; in the assay on RXF-631 renal it was 51.3 µM; in the assay on MDA-N it was 69.1 µM. In the assay with T-47D breast, this compound came in with a TGI of 90.6 µM.
Take `COc1ccc2ccccc2c1C1OC(=O)c2ccccc21` (stereo not given): the TGI with SNB-78 CNS, with DMS 273 small cell lung, in the assay with KM20L2 colon and in the assay with RXF-631 renal was over 100 µM throughout.
Regarding `CC(C)c1cccc2sc(NC(=O)C(=O)C(C#N)c3cccc4ccccc34)nc12` (stereo not given), the TGI with SNB-78 CNS, in the assay on LXFL 529 NSCLC, in the assay with DMS 273 small cell lung, in the assay on KM20L2 colon and with RXF-631 renal was over 100 µM throughout.
Regarding `O=c1c2ccccc2nc(-c2ccccc2)n1NC1OC(CO)C(O)C(O)C1O` (stereo not given), the TGI in the assay with SNB-78 CNS, in the assay on LXFL 529 NSCLC, in the assay on DMS 273 small cell lung, in the assay with KM20L2 colon and with RXF-631 renal was over 100 µM each time.
Take `O=CN/C=C/c1ccc(O)c(O)c1`: the TGI in the assay on SNB-78 CNS, in the assay on LXFL 529 NSCLC, in the assay on DMS 273 small cell lung, with KM20L2 colon and with RXF-631 renal was over 100 µM throughout.
Turning to `Cc1ccc(Nc2nc(C)c(C(/C=C/c3ccc(/C=C/C(=N/NC(=O)C[n+]4ccccc4)c4sc(Nc5ccc(C)cc5[N+](=O)[O-])nc4C)cc3)=N\NC(=O)C[n+]3ccccc3)s2)c([N+](=O)[O-])c1`, the TGI with SNB-78 CNS, in the assay with LXFL 529 NSCLC, with DMS 273 small cell lung, with KM20L2 colon and with RXF-631 renal was over 100 µM in each case.
Consider `Cc1cc(Cl)ccc1NC(=O)CC/C(CC(=O)C(C)C)=N\NC(=O)C[n+]1ccccc1`, for which the TGI in the assay on SNB-78 CNS, with LXFL 529 NSCLC, with DMS 273 small cell lung, in the assay on KM20L2 colon and in the assay with RXF-631 renal was over 100 µM in each case.
As to `COC(=O)CCC(NC(=S)N/N=C/c1ccco1)C(=O)OC` (stereo not given), the TGI in the assay with SNB-78 CNS, in the assay with LXFL 529 NSCLC, in the assay with DMS 273 small cell lung, with KM20L2 colon and with RXF-631 renal was over 100 µM each time.
